Data published in US9840515B2, “Protein kinase D inhibitors” (University of Pittsburgh—Of the Commonwealth System of …, priority 2010, dated 2017).
Like-named read-outs stand apart in the source and are kept apart here.

Tests used:
[1] = target: T1, PKD1 (Homo sapiens, UniProt Q15139); assay: Cellular inhibition of PMA-induced PKD1 S916 autophosphorylation in LNCaP cells (Western blot densitometry); format: cell-based; set-up: endogenous in cells; host or cells: LNCaP prostate cancer cells; settings: for IC50: PKD1 autophosphorylation at S916 in LNCaP cells
T1 sequence (Q15139 1-912): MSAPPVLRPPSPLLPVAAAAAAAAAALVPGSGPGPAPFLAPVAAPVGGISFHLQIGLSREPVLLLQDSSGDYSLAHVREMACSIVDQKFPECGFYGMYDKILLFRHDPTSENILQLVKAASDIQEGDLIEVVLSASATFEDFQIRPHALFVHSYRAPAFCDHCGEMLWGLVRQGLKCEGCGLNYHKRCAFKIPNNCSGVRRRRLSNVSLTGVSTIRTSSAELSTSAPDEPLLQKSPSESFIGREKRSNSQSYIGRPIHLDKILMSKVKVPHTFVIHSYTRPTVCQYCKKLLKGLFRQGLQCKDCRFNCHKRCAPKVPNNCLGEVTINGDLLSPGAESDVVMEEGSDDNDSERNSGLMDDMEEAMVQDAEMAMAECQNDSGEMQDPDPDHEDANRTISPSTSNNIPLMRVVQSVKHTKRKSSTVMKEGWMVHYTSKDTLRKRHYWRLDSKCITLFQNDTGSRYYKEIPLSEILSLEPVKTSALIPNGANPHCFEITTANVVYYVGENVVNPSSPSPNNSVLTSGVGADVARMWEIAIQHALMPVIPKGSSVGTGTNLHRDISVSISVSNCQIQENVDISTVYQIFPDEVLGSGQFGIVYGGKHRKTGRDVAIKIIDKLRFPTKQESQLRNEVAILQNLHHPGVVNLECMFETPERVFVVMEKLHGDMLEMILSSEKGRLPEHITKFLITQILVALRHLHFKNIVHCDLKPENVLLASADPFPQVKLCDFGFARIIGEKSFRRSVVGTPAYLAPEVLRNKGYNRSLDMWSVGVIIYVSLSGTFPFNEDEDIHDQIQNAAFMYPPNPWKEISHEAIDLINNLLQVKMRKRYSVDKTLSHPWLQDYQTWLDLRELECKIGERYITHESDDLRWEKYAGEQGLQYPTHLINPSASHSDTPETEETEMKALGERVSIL
Experimental: The compound to be tested was dissolved in DMSO at an initial concentration of 10 mM. LNCaP prostate cancer cells were pre-treated with DMSO or increasing concentrations of the compound for 45 min, followed by treatment with or without 100 nM phorbol 12-myristate 13-acetate (PMA), an activator of PKD, for 20 min. The cells were harvested for Western blot analysis.
Briefly, cells were lysed in lysis buffer containing 200 mM Tris-HCl, pH 7.4, 100 μM 4-(2-aminoethyl)benzenesulfonyl fluoride, 1 mM EGTA, and 1% Triton X-100. Protein concentration was determined using the BCA Protein Concentration Assay reagent kit (Pierce). Equal amounts of protein were subjected to SDS-PAGE followed by electrotransfer to nitrocellulose membranes. Membranes were blocked with 5% nonfat milk in Tris-buffered saline and then probed with primary antibodies for p-S916-PKD1 (Millipore), p-S744/748-PKD1 (Cell Signaling Technology), or GAPDH (Enzo), followed by anti-mouse or anti-rabbit secondary antibodies conjugated to horseradish peroxidase (Bio-Rad). The bands were detected by incubating with the enhanced chemiluminescence (ECL) Western blotting detection reagent (Amersham Biosciences) and exposing to X-ray films.

[2] = target: T2, purified recombinant human PKD1 (Homo sapiens, UniProt Q15139); assay: radiometric PKD kinase activity assay; format: biochemical
T2 sequence (Q15139 1-912): T1 sequence (Q15139 1-912)
Experimental: The radiometric PKD kinase assay was carried out by co-incubating 0.5 μCi γ-32P-ATP (PerkinElmer, Boston, Mass.), 20 μM ATP, 50 ng purified recombinant human PKD (PKD1, PKD2, PKD3) proteins, and 2.5 μg Syntide-2 (Sigma) in 50 μl kinase buffer that contains 50 mM Tris-HCl, pH 7.5, 4 mM MgCl2, 10 mM β-mercaptoethanol. The reaction was carried out under sub-saturation conditions, such that the initial rate was within linear kinetic range. The reaction mixture was incubated at 30° C. for 10 min, followed by spotting 25 μl of the mix onto a Whatman P81 filter paper (Whatman Inc, Clifton, N.J.). The filter papers were then washed three times in 0.5% phosphoric acid, air-dried, and counted using a Beckman LS6500 multi-purpose scintillation counter (Beckman, Fullerton, Calif.).

[3] = target: T1, PKD1; assay: IMAP-FP PKD1 assay; format: biochemical
Text: See Sharlow, E. R., et. al., J Biol Chem, 283: 33516-33526, (2008). The assay established the concentration of inhibitor that is required to reduce PKD1 activity by 50% (IC50), as shown in Table 2 above.

[4] = radiometric kinase activity assay, in vitro, read-out: IC50 PKD1
[5] = read-out: IC50 radiometric PKD1

SMILES	IC50 [1] [nM]	IC50 [2, 4] [nM]	IC50 [2, 5] [nM]	melting point	IC50 [3] [nM]	IC50 IMAP-FP PKD1 [3]	cellular activity fold lower than kb-NB142-70 [1] [fold]
O=C1NCCCc2c1oc1ccc(O)cc21 [CID755673, 7-Hydroxy-2,3,4,5-tetrahydro-[1]benzoxolo[2,3-c]azepin-1-one, reference compound]	11800	182 ± 27					
O=C1NCCCc2c1oc1ccc(O)c(Cl)c21 [kb-NB77-88, 6-Chloro-7-hydroxy-2,3,4,5-tetrahydro-[1]benzoxolo[2,3-c]azepin-1-one]			890	> 300 °C	1400 ± 100		
C=CCc1c(O)ccc2oc3c(c12)CCCNC3=O [kb-NB96-02, 6-Allyl-7-hydroxy-2,3,4,5-tetrahydro-[1]benzoxolo[2,3-c]azepin-1-one]			1580	255 to 257 °C	2400 ± 300		
O=C1NCCCc2c1oc1ccc(O)c(F)c21 [kb-NB96-21, 6-Fluoro-7-hydroxy-2,3,4,5-tetrahydro-[1]benzoxolo[2,3-c]azepin-1-one]			240	> 300 °C	1300 ± 50		
C/C=C/c1c(O)ccc2oc3c(c12)CCCNC3=O [kb-NB96-30, 6-[(E)-2-(Prop-1-enyl)]-7-hydroxy-2,3,4,5-tetrahydro-[1]benzoxolo[2,3-c]azepin-1-one]			240	> 300 °C	1000 ± 100		
O=C1NCCCc2c1oc1cc(Cl)c(O)c(Cl)c21 [kb-NB96-43, 6,8-Dichloro-7-hydroxy-2,3,4,5-tetrahydro-[1]benzoxolo[2,3-c]azepin-1-one]				298 to 301 °C		not inhibitory	
O=C1NCCCc2c1oc1cc(Cl)c(O)cc21 [kb-NB96-47-5, 8-Chloro-7-hydroxy-2,3,4,5-tetrahydro-[1]benzoxolo[2,3-c]azepin-1-one]				327 to 332 °C	> 100000		
C=CCOc1ccc2oc3c(c2c1Cl)CCCNC3=O [kb-NB96-50, 7-Allyloxy-6-chloro-2,3,4,5-tetrahydro-[1]benzoxolo[2,3-c]azepin-1-one]				192 to 194 °C		not inhibitory	
O=C1NCCc2c1[nH]c1ccc(OCc3ccccc3)cc21 [kb-NB123-52, 2,3,4,9-Tetrahydro-6-benzyloxy-1H-pyrido[3,4-b]indol-1-one]				208 to 210 °C		not inhibitory	
O=C1NCCCc2c1[nH]c1ccc(OCc3ccccc3)cc21 [kb-NB123-53, 3,4,5,10-Tetrahydro-7-benzyloxy-azepino[3,4-b]indol-1(2H)-one]						not inhibitory	
O=C1NCCc2c1[nH]c1ccc(O)cc21 [kb-NB123-59, 2,3,4,9-Tetrahydro-6-hydroxy-1H-pyrido[3,4-b]indol-1-one]			1570 ± 200	244 to 247 °C	19400 ± 1400		
O=C1NCCC(=O)c2c1oc1ccc(O)cc21 [kb-NB123-63, 7-Hydroxy-2H,3H,4H-azepino[5,6-d]benzo[b]furan-1,5-dione]			850 ± 110	> 300 °C	14900 ± 1200		
O=C1NCCC(O)c2c1oc1ccc(O)cc21 (stereo not drawn) [kb-NB123-89, 5,7-Dihydroxy-2H,3H,4H,5H-azepino[5,6-d]benzo[b]furan-1-one]			1230 ± 210	280 to 282 °C	24100 ± 710		
CC(=O)Nc1ccc2[nH]c3c(c2c1)CCNC3=O [kb-NB123-93, N-(2,3,4,9-Tetrahydro-1-oxo-1H-pyrido[3,4-b]indol-6-yl)-acetamide]				> 300 °C		not inhibitory	
CC(=O)Nc1ccc2[nH]c3c(c2c1)CCCNC3=O [kb-NB123-94]				> 300 °C		not inhibitory	
Nc1ccc2[nH]c3c(c2c1)CCCNC3=O [kb-NB142-01]			9680 ± 1010	202 to 207 °C	47100 ± 2500		
O=C1NCCC(=NNc2ccccc2)c2c1oc1ccc(O)cc21 [kb-NB142-05, 7-Hydroxy-5-[(phenylamino)azamethylene]-2H,3H,4H-azepino[5,6-d]benzo[b]furan-1-one]			1130	234 to 236 °C	21700 ± 520		
Nc1ccc2[nH]c3c(c2c1)CCNC3=O [kb-NB142-08, 6-Amino-2,3,4,9-tetrahydro-1H-pyrido[3,4-b]indol-1-one]			15700 ± 190	280 to 282 °C	74400 ± 2200		
O=C1NCCC(=NOCc2ccccc2)c2c1oc1ccc(O)cc21 [kb-NB142-10, 7-Hydroxy-5-[(phenylmethoxy)azamethylene]-2H,3H,4H-azepino[5,6-d]benzo[b]furan-1-one]				103 to 110 °C		not inhibitory	
Cc1ccc(S(=O)(=O)NN=C2CCNC(=O)c3oc4ccc(O)cc4c32)cc1 [kb-NB142-11, 7-Hydroxy-5-({[(4-methylphenyl)sulfonyl]amino}azamethylene)-2H,3H,4H-azepino[5,6-d]benzo[b]furan-1-one]				220 to 224 °C	38200 ± 1170		
O=C1NCCSc2c1sc1ccc(O)c(I)c21 [kb-NB165-31, 3,4-Dihydro-9-hydroxy-10-iodo-[1]benzothieno[2,3-f]-1,4-thiazepin-5(2H)-one]	8600 ± 2000	114	110 ± 20	128 °C (dec.)			4
